Measurements reported in ChEMBL document CHEMBL3525956, “Species independence in brain tissue binding using brain homogenates” (Drug Metab Dispos, 2011).

Assays:
[1] = Fraction unbound in Wistar Han rat brain homogenates at 1 uM after 6 hrs by equilibrium dialysis method; conditions: brain homogenate
[2] = Fraction unbound in Sprague-Dawley rat brain homogenates at 1 uM after 6 hrs by equilibrium dialysis method; conditions: brain homogenate
[3] = Fraction unbound in CD-1 mouse brain homogenates at 1 uM after 6 hrs by equilibrium dialysis method; conditions: brain homogenate
[4] = Fraction unbound in Hartley guinea pig brain homogenates at 1 uM after 6 hrs by equilibrium dialysis method; conditions: brain homogenate
[5] = Fraction unbound in Beagle dog brain homogenates at 1 uM after 6 hrs by equilibrium dialysis method; conditions: brain homogenate
[6] = Fraction unbound in cynomolgus monkey brain homogenates at 1 uM after 6 hrs by equilibrium dialysis method; conditions: brain homogenate
[7] = Fraction unbound in human occipital cortex at 1 uM after 6 hrs by equilibrium dialysis method

Structure (SMILES) | fraction unbound at 6 h, 1 µM [1] | fraction unbound at 6 h, 1 µM [2] | fraction unbound at 6 h, 1 µM [3] | fraction unbound at 6 h, 1 µM [4] | fraction unbound at 6 h, 1 µM [5] | fraction unbound at 6 h, 1 µM [6] | fraction unbound at 6 h, 1 µM [7]
CCN(CC)C(=O)/C(C#N)=C/c1cc(O)c(O)c([N+](=O)[O-])c1 [ENTACAPONE] | 0.021 | 0.017 | 0.026 | 0.019 | 0.02 | 0.031 | 0.025
Cc1nc2n(c(=O)c1CCN1CCC(c3noc4cc(F)ccc34)CC1)CCCC2O (centres undefined) [PALIPERIDONE] | 0.092 | 0.078 | 0.129 | 0.101 | 0.126 | 0.1 | 0.116
CN1[C@@H]2CC[C@H]1C[C@@H](OC(=O)c1c[nH]c3ccccc13)C2 [TROPISETRON] | 0.056 | 0.045 | 0.059 | 0.048 | 0.047 | 0.064 | 0.053
CO[C@H]1/C=C/O[C@@]2(C)Oc3c(C)c(O)c4c(O)c(c(/C=N/N5CCN(C)CC5)c(O)c4c3C2=O)NC(=O)/C(C)=C\C=C\[C@H](C)[C@H](O)[C@@H](C)[C@@H](O)[C@@H](C)[C@H](OC(C)=O)[C@@H]1C [RIFAMPIN] | 0.121 | 0.068 | 0.121 | 0.118 | 0.259 | 0.162 | 0.119
NC1CCN(c2c(F)cc3c(=O)c(C(=O)O)cn(C4CC4)c3c2Cl)C1 (centres undefined) [CLINAFLOXACIN] | 0.148 | 0.435 | 0.377 | 0.167 | 0.398 | 0.139 | 0.157
COC(=O)C1=C(C)NC(C)=C(C(=O)OCCN(C)Cc2ccccc2)C1c1cccc([N+](=O)[O-])c1 (centres undefined) [NICARDIPINE] | 0.005 | 0.008 | 0.004 | 0.004 | 0.006 | 0.006 | 0.006
CN(C)CCCC1(c2ccc(F)cc2)OCc2cc(C#N)ccc21 (centres undefined) [CITALOPRAM] | 0.05 | 0.03 | 0.06 | 0.038 | 0.057 | 0.061 | 0.047
